Measurements taken from ChEMBL document CHEMBL1201862, “PubChem BioAssay data set” (2004).
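Five concentrations, 48 hours, 96-well plates. Abbreviation: GI50, concentration required for 50% inhibition of growth.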 Calls of active or inactive are those of the source. No stated cut-off is given here; in the data, active = GI50 up to about 1.1 µM and inactive = higher.

How the values were obtained:
Assay in all cases: NCI anticancer screen, dose series, 48 h
A549 = system: A549
DU-145 = system: DU-145
EKVX = system: EKVX
HCT-116 = system: HCT-116
HCT-15 = system: HCT-15
HOP-92 = system: HOP-92
Hs-578T = system: Hs-578T
M14 = system: M14
MCF7 = system: MCF7
MDA-N = system: MDA-N
OVCAR-4 = system: OVCAR-4
SF-539 = system: SF-539
SK-MEL-28 = system: SK-MEL-28
SK-MEL-2 = system: SK-MEL-2
SK-MEL-5 = system: SK-MEL-5
SN12C = system: SN12C
T47D = system: T47D
UACC-62 = system: UACC-62
SK-OV-3 = system: SK-OV-3

Q: What does the source list for `Cc1cn([C@@H]2C[C@@H]2CO)c(=O)[nH]c1=O`?
A: GI50 (A549): > 100 µM (inactive); GI50 (DU-145): > 100 µM (inactive); GI50 (EKVX): > 100 µM (inactive); GI50 (HCT-116): > 100 µM (inactive); GI50 (HCT-15): > 100 µM; GI50 (HOP-92): > 100 µM (inactive); GI50 (Hs-578T): > 100 µM (inactive); GI50 (M14): > 100 µM (inactive); GI50 (MCF7): > 100 µM (inactive); GI50 (MDA-N): > 100 µM (inactive); GI50 (OVCAR-4): > 100 µM (inactive); GI50 (SF-539): > 100 µM (inactive); GI50 (SK-MEL-28): > 100 µM (inactive); GI50 (SK-MEL-2): > 100 µM (inactive); GI50 (SK-MEL-5): > 100 µM (inactive); GI50 (SN12C): > 100 µM (inactive); GI50 (T47D): > 100 µM (inactive); GI50 (UACC-62): > 100 µM (inactive)

Q: Which results are given for `CC(=O)O[C@H]1C[C@H]2[C@@H]([C@H](OC(C)=O)C[C@@H]3CC4(CC[C@@]32C)OOC2(CCCCC2)OO4)[C@@H]2CC[C@H]([C@H](C)CCC(N)=O)[C@@]12C`?
A: GI50 (A549): 1.19 µM (inactive); GI50 (DU-145): 1.93 µM (inactive); GI50 (EKVX): 1.49 µM (inactive); GI50 (HCT-116): 3.13 µM (inactive); GI50 (HCT-15): 2 µM; GI50 (Hs-578T): 5.47 µM (inactive); GI50 (M14): 3.33 µM (inactive); GI50 (MCF7): 2.61 µM (inactive); GI50 (MDA-N): 1.95 µM (inactive); GI50 (OVCAR-4): 1.78 µM (inactive); GI50 (SF-539): 3.13 µM (inactive); GI50 (SK-MEL-28): 8.93 µM (inactive); GI50 (SK-MEL-2): 1.78 µM (inactive); GI50 (SK-MEL-5): 2.15 µM (inactive); GI50 (SK-OV-3): 11.6 µM (inactive); GI50 (SN12C): 2.14 µM (inactive); GI50 (T47D): 1.63 µM (inactive); GI50 (UACC-62): 2.7 µM (inactive)

Q: For `C[C@@H]([C@H]1CC[C@@]2(C)[C@@H]3CC[C@@H]4C(=CC3=CC[C@]12C)CC[C@H](N(C)C)C4(C)C)N(C)C` [BUXAMINE A], which GI50 (DU-145) is on record?
A: > 100 µM (inactive)

Q: What about the GI50 (EKVX) of the same compound?
A: > 100 µM (inactive)

Q: What about the GI50 (HCT-116) of the same compound?
A: > 100 µM (inactive)

Q: What about the GI50 (HCT-15) of the same compound?
A: > 100 µM

Q: And the GI50 (HOP-92)?
A: > 100 µM (inactive)

Q: What about the GI50 (Hs-578T) of the same compound?
A: > 100 µM (inactive)

Q: What about the GI50 (M14) of the same compound?
A: > 100 µM (inactive)

Q: And the GI50 (MCF7)?
A: > 100 µM (inactive)

Q: And the GI50 (MDA-N)?
A: > 100 µM (inactive)

Q: What about the GI50 (OVCAR-4) of the same compound?
A: > 100 µM (inactive)

Q: And the GI50 (SF-539)?
A: > 100 µM (inactive)

Q: What about the GI50 (SK-MEL-28) of the same compound?
A: > 100 µM (inactive)

Q: And the GI50 (SK-MEL-5)?
A: > 100 µM (inactive)

Q: What about the GI50 (SK-OV-3) of the same compound?
A: > 100 µM (inactive)

Q: What about the GI50 (SN12C) of the same compound?
A: > 100 µM (inactive)

Q: What about the GI50 (T47D) of the same compound?
A: > 100 µM (inactive)

Q: What about the GI50 (UACC-62) of the same compound?
A: > 100 µM (inactive)

Q: With `COC(=O)c1cnn2c1ccc1ccccc12` as the compound, how does the GI50 (A549) read?
A: > 100 µM (inactive)

Q: What about the GI50 (DU-145) of the same compound?
A: > 100 µM (inactive)

Q: And the GI50 (EKVX)?
A: 55.3 µM (inactive)

Q: What about the GI50 (HCT-116) of the same compound?
A: > 100 µM (inactive)

Q: What about the GI50 (HCT-15) of the same compound?
A: > 100 µM

Q: And the GI50 (HOP-92)?
A: > 100 µM (inactive)

Q: And the GI50 (Hs-578T)?
A: > 100 µM (inactive)

Q: And the GI50 (M14)?
A: > 100 µM (inactive)

Q: What about the GI50 (MDA-N) of the same compound?
A: > 100 µM (inactive)

Q: And the GI50 (SF-539)?
A: > 100 µM (inactive)

Q: What about the GI50 (SK-MEL-28) of the same compound?
A: > 100 µM (inactive)

Q: And the GI50 (SK-MEL-2)?
A: > 100 µM (inactive)

Q: And the GI50 (SK-MEL-5)?
A: > 100 µM (inactive)

Q: What about the GI50 (SK-OV-3) of the same compound?
A: > 100 µM (inactive)

Q: And the GI50 (SN12C)?
A: > 100 µM (inactive)

Q: What about the GI50 (T47D) of the same compound?
A: > 100 µM (inactive)

Q: And the GI50 (UACC-62)?
A: > 100 µM (inactive)

Q: What does the source list for `CCOC(=O)Nc1cc2c(c(N)n1)N=C(c1ccccc1)CN2`?
A: GI50 (A549): < 0.01 µM (active); GI50 (DU-145): < 0.01 µM (active); GI50 (EKVX): < 0.0187 µM (active); GI50 (HCT-116): < 0.01 µM (active); GI50 (HCT-15): < 0.01 µM; GI50 (HOP-92): < 0.01 µM (active); GI50 (Hs-578T): < 0.0001 µM (active); GI50 (M14): < 0.01 µM (active); GI50 (MCF7): 0.0317 µM (active); GI50 (MDA-N): < 0.01 µM (active); GI50 (OVCAR-4): 28.1 µM (inactive); GI50 (SF-539): < 0.01 µM (active); GI50 (SK-MEL-28): 14.5 µM (inactive); GI50 (SK-MEL-5): < 0.01 µM (active); GI50 (SK-OV-3): 0.0527 µM (active); GI50 (SN12C): < 0.01 µM (active); GI50 (T47D): 37.3 µM (inactive); GI50 (UACC-62): < 0.0001 µM (active)

Q: For `O=S(=O)(/N=c1/[nH]c2ccccc2n1S(=O)(=O)c1ccccc1)c1ccccc1`, which GI50 (A549) is on record?
A: 42.4 µM (inactive)

Q: What about the GI50 (DU-145) of the same compound?
A: 57.7 µM (inactive)

Q: What about the GI50 (EKVX) of the same compound?
A: 65.6 µM (inactive)

Q: And the GI50 (HCT-116)?
A: 46.7 µM (inactive)

Q: What about the GI50 (HCT-15) of the same compound?
A: 36.3 µM

Q: What about the GI50 (HOP-92) of the same compound?
A: 38.5 µM (inactive)

Q: And the GI50 (Hs-578T)?
A: 88.1 µM (inactive)

Q: What about the GI50 (M14) of the same compound?
A: 25.2 µM (inactive)

Q: What about the GI50 (MDA-N) of the same compound?
A: 56.2 µM (inactive)

Q: What about the GI50 (OVCAR-4) of the same compound?
A: 46.6 µM (inactive)

Q: What about the GI50 (SK-MEL-28) of the same compound?
A: 34.4 µM (inactive)

Q: And the GI50 (SK-MEL-2)?
A: 35.4 µM (inactive)

Q: And the GI50 (SK-MEL-5)?
A: 47.8 µM (inactive)

Q: What about the GI50 (SK-OV-3) of the same compound?
A: 50 µM (inactive)

Q: What about the GI50 (SN12C) of the same compound?
A: 65.5 µM (inactive)

Q: What about the GI50 (T47D) of the same compound?
A: 53.1 µM (inactive)

Q: What about the GI50 (UACC-62) of the same compound?
A: 26.7 µM (inactive)

Q: Which results are given for `NCCN1C(=O)CN=C(c2ccc(Cl)cc2)c2cc(Cl)ccc21`?
A: GI50 (A549): 17.1 µM (inactive); GI50 (DU-145): 17.1 µM (inactive); GI50 (EKVX): 26.2 µM (inactive); GI50 (HCT-116): 16.2 µM (inactive); GI50 (HCT-15): 16.7 µM; GI50 (HOP-92): 9.84 µM (inactive); GI50 (Hs-578T): 16.1 µM (inactive); GI50 (M14): 16.1 µM (inactive); GI50 (MDA-N): 16.7 µM (inactive); GI50 (OVCAR-4): 16.2 µM (inactive); GI50 (SF-539): 17.4 µM (inactive); GI50 (SK-MEL-28): > 100 µM (inactive); GI50 (SK-MEL-2): 16.3 µM (inactive); GI50 (SK-MEL-5): 16.9 µM (inactive); GI50 (SK-OV-3): 22.4 µM (inactive); GI50 (SN12C): 22.5 µM (inactive); GI50 (T47D): 21.8 µM (inactive); GI50 (UACC-62): 17.9 µM (inactive)

Q: With `Nc1nc(O)c2c(n1)NCN(CCCN1CCOCC1)C2` as the compound, how does the GI50 (A549) read?
A: > 100 µM (inactive)

Q: What about the GI50 (DU-145) of the same compound?
A: > 100 µM (inactive)

Q: And the GI50 (EKVX)?
A: > 100 µM (inactive)

Q: And the GI50 (HCT-116)?
A: > 100 µM (inactive)

Q: What about the GI50 (HCT-15) of the same compound?
A: > 100 µM

Q: What about the GI50 (HOP-92) of the same compound?
A: > 100 µM (inactive)

Q: What about the GI50 (Hs-578T) of the same compound?
A: > 100 µM (inactive)

Q: What about the GI50 (M14) of the same compound?
A: > 100 µM (inactive)

Q: What about the GI50 (MCF7) of the same compound?
A: > 100 µM (inactive)

Q: And the GI50 (MDA-N)?
A: > 100 µM (inactive)

Q: What about the GI50 (OVCAR-4) of the same compound?
A: > 100 µM (inactive)

Q: And the GI50 (SF-539)?
A: > 100 µM (inactive)

Q: And the GI50 (SK-MEL-28)?
A: > 100 µM (inactive)

Q: And the GI50 (SK-MEL-2)?
A: > 100 µM (inactive)

Q: And the GI50 (SK-MEL-5)?
A: > 100 µM (inactive)

Q: And the GI50 (SN12C)?
A: > 100 µM (inactive)

Q: And the GI50 (T47D)?
A: > 100 µM (inactive)

Q: And the GI50 (UACC-62)?
A: > 100 µM (inactive)
